Assay results taken from PubChem BioAssay AID1963843 (Molecular Pharmacology Branch, DTP, NCI, 2024).

Test system: 616215-338-R-J1-PDC complex spheroid viability
Assay: Anticancer human tumor 616215-338-R-J1-PDC patient-derived colon adenocarcinoma cell line growth inhibition [POLQ]
Conditions: for IC50: curve of first compound; for viability, T/C: stronger effect = lower value
Summary of the method: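 PDC + HUVEC + MSC complex spheroids; POLQ inhibitors ± partner drugs; top conc. at/near clinical Cmax, else 10 microM (SN-38 1 microM), half-log dilutions; 37 degrees C, 5% CO2.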
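Also: spheroids exposed to compounds for one week before readout.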
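For viability, T/C in this document: percent viability relative to DMSO vehicle wells taken as 100%.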

O=C(Nc1ccc(O)c(NS(=O)(=O)c2ccc(F)cc2)c1)c1ccc(-c2ccccc2)cc1 + Nc1ccc(C#CCN(C(=O)Cc2ncc(C(F)(F)F)cc2C(F)(F)F)c2ccc(F)cc2)nn1
IC50 (second compound 0.0316 µM): 9.93 µM
IC50 (second compound 0.1 µM): > 10 µM
IC50 (second compound 0.316 µM): > 10 µM
IC50 (second compound 1 µM): > 10 µM
IC50 (second compound 3.16 µM): > 10 µM
IC50 (second compound 10 µM): 6.56 µM
viability, T/C (second compound 0.0316 µM, first compound 0.0316 µM): 108%
viability, T/C (second compound 0.0316 µM, first compound 0.1 µM): 105%
viability, T/C (second compound 0.0316 µM, first compound 0.316 µM): 105%
viability, T/C (second compound 0.0316 µM, first compound 1 µM): 104%
viability, T/C (second compound 0.0316 µM, first compound 3.16 µM): 119%
viability, T/C (second compound 0.0316 µM, first compound 10 µM): 49.7%
viability, T/C (second compound 0.1 µM, first compound 0.0316 µM): 108%
viability, T/C (second compound 0.1 µM, first compound 0.1 µM): 105%
viability, T/C (second compound 0.1 µM, first compound 0.316 µM): 114%
viability, T/C (second compound 0.1 µM, first compound 1 µM): 105%
viability, T/C (second compound 0.1 µM, first compound 3.16 µM): 100%
viability, T/C (second compound 0.1 µM, first compound 10 µM): 56%
viability, T/C (second compound 0.316 µM, first compound 0.0316 µM): 108%
viability, T/C (second compound 0.316 µM, first compound 0.1 µM): 107%
viability, T/C (second compound 0.316 µM, first compound 0.316 µM): 103%
viability, T/C (second compound 0.316 µM, first compound 1 µM): 104%
viability, T/C (second compound 0.316 µM, first compound 3.16 µM): 96.6%
viability, T/C (second compound 0.316 µM, first compound 10 µM): 72.6%
viability, T/C (second compound 1 µM, first compound 0.0316 µM): 105%
viability, T/C (second compound 1 µM, first compound 0.1 µM): 106%
viability, T/C (second compound 1 µM, first compound 0.316 µM): 106%
viability, T/C (second compound 1 µM, first compound 1 µM): 101%
viability, T/C (second compound 1 µM, first compound 3.16 µM): 91.2%
viability, T/C (second compound 1 µM, first compound 10 µM): 54%
viability, T/C (second compound 3.16 µM, first compound 0.0316 µM): 106%
viability, T/C (second compound 3.16 µM, first compound 0.1 µM): 103%
viability, T/C (second compound 3.16 µM, first compound 0.316 µM): 102%
viability, T/C (second compound 3.16 µM, first compound 1 µM): 102%
viability, T/C (second compound 3.16 µM, first compound 3.16 µM): 76.5%
viability, T/C (second compound 3.16 µM, first compound 10 µM): 50.7%
viability, T/C (second compound 10 µM, first compound 0.0316 µM): 93.9%
viability, T/C (second compound 10 µM, first compound 0.1 µM): 84.2%
viability, T/C (second compound 10 µM, first compound 0.316 µM): 93.2%
viability, T/C (second compound 10 µM, first compound 1 µM): 105%
viability, T/C (second compound 10 µM, first compound 3.16 µM): 85.8%
viability, T/C (second compound 10 µM, first compound 10 µM): 29.3%
